For this experiment, the target named is T1, GGTase-I (Rattus norvegicus, UniProt P53610).
T1 construct: endogenous in cells; host or cells: H-ras transformed Rat1 fibroblast cell line (Hras2b/rat1)
Kind of experiment: Cell Radiotracer Assay of Geranylgeranyl Transferase Inhibitor (CRAGGTI), radioligand binding to living cells. Particulars: H-ras transformed Rat1 fibroblast cell line; specific binding, non-specific determined with 1000-fold molar excess of unlabeled Compound A; read-out: concentration of [^3H] Compound A that achieves half maximal binding to cells (apparent Kd). On the procedure:
In an embodiment of the instant invention, the assay involves growing a cell line in 24-well cell culture plates as an adherent population of cells until the cell culture is nearly confluent. The concentration of radioligand required to achieve half-maximal specific binding to cells is determined by adding the radioligand at varying concentrations to cell culture media, and incubating this mixture with the cells for a defined period of time. To determine the level of non-specific binding of the radioligand, excess unlabeled GGTase-I inhibitor (unlabeled radioligand) is added to some of the wells. After incubation, the unbound radioligand is removed from the cells. […] The cell layer is then solubilized and analyzed. Having determined the concentration of radioligand that achieves half maximal binding to cells, one can determine the relative IC50s of test compounds by incubating varying concentrations of test compounds with the appropriate concentration of radioligand, and perform the cell incubations, washes, and solubilization steps as described. […]
Briefly, the method involves growing a cell line in 24-well cell culture plates as an adherent population of cells until the cell culture is nearly confluent. […] Compound A required to achieve half-maximal specific binding to cells is determined by adding [^3H] […] Having determined the concentration of [^3H] […]

This is an account of results in US20020072081A1, “Geranylgeranyl transferase inhibitor screening assay” (priority 2000, published 2002).

Take `[3H]C(O)(CN1CCN(Cc2cncn2Cc2ccc(C#N)cc2)CC1=O)C12CC3CC(CC(C3)C1)C2` (stereo not shown) [[^3H] Compound A, [^3H]-R/S 1-(4-Cyanobenzyl)-5-[1-(2-hydroxy-2-(adamant-1-yl)ethyl)-2-oxo-piperazin-4-vl-methyl]imidazole]: the Kd was about 300 pM.
